Measurements from ChEMBL document CHEMBL1828558, “Discovery of (+)-N-(3-aminopropyl)-N-[1-(5-benzyl-3-methyl-4-oxo-[1,2]thiazolo[5,4-d]pyrimidin-6-yl)-2-methylpropyl]-4-methylbenzamide (AZD4877), a kinesin spindle protein inhibitor and potential anticancer agent” (J Med Chem, 2011).

Assays:
[1] = Plasma protein binding in human; type: ADME, cell-free; settings: read-out: PPB (converted)
[2] = test system: Rattus norvegicus; assay: Hepatic blood flow in rat at 1 and 5 mg/kg, iv administered as bolus dose; type: ADME, organism-based, Liver; set-up: dose 5 mg/kg, route intravenous; settings: in vivo
[3] = target: T1, Kinesin-like protein KIF23 (Homo sapiens, UniProt Q02241); assay: Inhibition of human recombinant GST-MKLP1 after 20 mins by malachite green assay
T1 sequence (Q02241 whole entry): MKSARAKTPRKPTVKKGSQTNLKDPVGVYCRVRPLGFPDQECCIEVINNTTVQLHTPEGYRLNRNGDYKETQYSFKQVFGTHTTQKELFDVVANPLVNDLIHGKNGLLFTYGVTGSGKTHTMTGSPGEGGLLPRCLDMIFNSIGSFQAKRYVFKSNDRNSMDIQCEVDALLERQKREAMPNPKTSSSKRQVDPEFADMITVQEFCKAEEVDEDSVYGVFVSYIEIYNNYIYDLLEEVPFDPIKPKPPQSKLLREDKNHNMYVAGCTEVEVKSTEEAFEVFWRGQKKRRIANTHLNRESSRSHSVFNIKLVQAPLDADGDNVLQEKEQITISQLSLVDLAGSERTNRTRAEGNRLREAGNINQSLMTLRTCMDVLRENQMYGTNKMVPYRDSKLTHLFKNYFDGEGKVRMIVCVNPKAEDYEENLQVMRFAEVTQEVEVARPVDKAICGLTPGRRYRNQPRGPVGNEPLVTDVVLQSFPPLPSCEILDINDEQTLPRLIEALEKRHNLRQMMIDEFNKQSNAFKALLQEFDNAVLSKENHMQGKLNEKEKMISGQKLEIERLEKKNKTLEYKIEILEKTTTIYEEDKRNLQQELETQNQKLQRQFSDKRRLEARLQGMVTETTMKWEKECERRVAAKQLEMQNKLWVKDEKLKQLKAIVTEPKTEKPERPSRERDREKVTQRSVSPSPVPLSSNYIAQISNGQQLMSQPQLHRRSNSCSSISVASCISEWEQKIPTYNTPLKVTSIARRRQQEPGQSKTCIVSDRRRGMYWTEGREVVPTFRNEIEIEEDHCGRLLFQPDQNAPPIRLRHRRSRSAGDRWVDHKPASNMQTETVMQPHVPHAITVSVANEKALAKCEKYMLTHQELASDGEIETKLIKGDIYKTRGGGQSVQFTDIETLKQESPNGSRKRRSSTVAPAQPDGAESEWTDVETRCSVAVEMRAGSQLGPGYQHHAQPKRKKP

[4] = target: T2, Cytochrome P450 1A2 (Homo sapiens, UniProt P05177); assay: Inhibition of human recombinant CYP1A2; type: ADME
T2 sequence (P05177 whole entry): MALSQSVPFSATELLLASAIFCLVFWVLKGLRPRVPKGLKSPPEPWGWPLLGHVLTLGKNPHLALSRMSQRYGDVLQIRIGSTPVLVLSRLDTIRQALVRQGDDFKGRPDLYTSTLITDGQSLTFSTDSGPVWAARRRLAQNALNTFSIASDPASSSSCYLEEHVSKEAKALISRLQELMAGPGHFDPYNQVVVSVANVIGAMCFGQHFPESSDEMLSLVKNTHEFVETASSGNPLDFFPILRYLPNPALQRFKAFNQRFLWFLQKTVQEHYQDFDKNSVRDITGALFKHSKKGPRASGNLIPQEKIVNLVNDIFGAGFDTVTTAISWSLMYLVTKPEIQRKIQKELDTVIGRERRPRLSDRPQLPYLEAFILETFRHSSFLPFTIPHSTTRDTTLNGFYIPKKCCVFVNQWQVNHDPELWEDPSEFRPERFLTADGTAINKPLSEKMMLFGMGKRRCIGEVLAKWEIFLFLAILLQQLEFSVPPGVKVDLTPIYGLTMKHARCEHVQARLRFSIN

[5] = Plasma concentration in Hans Wistar rat hollow fiber model implanted with human COLO205 cells at 6 mg/kg, iv after 24 hrs; type: ADME, organism-based, COLO 205; set-up: dose 6 mg/kg, route intravenous

fraction unbound [1]: 0.046 | QH [2]: 50% | IC50 [3]: 50 µM | IC50 [4]: > 10 µM | concentration at 24 h [5]: 2.8 ng/mL
SMILES: Cc1ccc(C(=O)N(CCCN)C(c2nc3snc(C)c3c(=O)n2Cc2ccccc2)C(C)C)cc1 (single isomer, unassigned; (+)) [AZD-4877]
